Measured values: US20210228748A1, “IN VIVO STABLE HG-197(M) COMPOUNDS, METHOD FOR THE PRODUCTION THEREOF AND USE THEREOF IN NUCLEAR MEDICAL DIAGNOSTICS AND ENDORADIONUCLIDE THERAPY (THERANOSTICS)” (HELMHOLTZ-ZENTRUM DRESDEN - […].V., priority 2017, published 2021)
“Also recorded” adds a separate entry of the source.

Tests used:
[1] = Stability test with excess of sulfur-containing competitors (radio-TLC); type: physicochemical
Procedure: (§1) After pH-adjustment of the hydrochloric acid solution of [197(m)Hg]HgCl2(aq) (˜55 MBq, 20 μl, pH 1), by addition of 0.5 M HEPES buffer (pH 8, 200 μl), EtOH (200 μl), 6 M NaOH(aq) (11 μl), and 1 M NaOH(aq) (2 μl), a 1 mg/ml acetonitrile solution of 2 (12 μl, 14 nmol) was added. This solution (pH 6, 445 μl) was mixed at 50° C. for 1 h. The radiochemical yield of 3* was determined by radio-TLC (iTLC ACN+0.1% TFA, RP-18 TLC 9:1 ACN: H2O+0.1% TFA) as >95%. Purification and solvent change were carried out with a C8 cartridge (500 mg). After washing with water the major product was eluted with 7:3 EtOH:H2O from the cartridge. The last 2 fractions contained ˜16 MBq and ˜10 MBq respectively. The ˜16 MBq fraction had 3×200 μl extracted (˜4 MBq each). These fractions then had 1 competitor added each (1 mg/ml, 10 μl): tris(2-mercaptoethyl)ammonium oxalate, glutathione and Na2S. The mixtures were left at rt and checked by radio-TLC after 5 min, 1 h and 2 d, the only degradation observed was ˜4% after 2 d in the Na2S mixture. The ˜10 MBq fraction was divided into 2×500 μl. The first lot was used to test the stability of 3* in the highly aqueous solvent system necessary for biodistribution studies, this was diluted from 70% EtOH(aq) to ˜10% EtOH(aq) with brine (3.5 ml). […]

[2] = Human serum stability assay (SDS-PAGE autoradiograph); type: in vitro ADME; conditions: incubated with human serum 1 h at 37° C., pH 7.4, non-reducing SDS-PAGE
Procedure: FIGS. 4A and 4B show stability testing for compound 3*, namely the analysis of ^197(m)Hg-incorporation into human serum proteins by SDS-PAGE (20% SDS-polyacrylamide gel autoradiograph (FIG. 4A), showing 197(m)Hg-labeled bands, and Coomassie staining (FIG. 4B), showing bands of human serum proteins; Lane 1: ^197(m)>Hg-radiolabeled bispidine 3*. Lane 2: ^197(m)Hg-radiolabeled EDTA. M: molecular-weight size marker).
Human serum “off the clot” (5 ml) stored at −20° C. was slowly thawed on ice and filtered using syringe filters with a pore size of 0.2 μm. Two aliquots of filtered serum (2×220 μl) were mixed with 1 M HEPES/NaOH buffer (pH 7.4, 2×45 μl). Separately, 2×200 μl solution (1:1 EtOH:H2O, pH 6) of 3* (˜4 MBq) and 197(m)HgCl2/EDTA (˜5 MBq, 10 μg EDTA) had 1 M HEPES/NaOH buffer (pH 8.0, 2×20 μl) added to increase solution pH to 7.4. Then 135 μl of each 197(m)Hg-radiolabeled sample was added to one of the previously prepared serum/buffer solutions (265 μl) and incubated for 1 h at 37° C. 50 μl aliquots were then taken and mixed with 50 μl of 2× Laemmli sample buffer (Bio-Rad Laboratories), N.B. no reducing agent was added and the samples were not heated. The mixtures were then analyzed by non-reducing SDS-PAGE with acrylamide concentrations of 5% in the stacking gel and 20% in the resolving gel. 2 μl of each sample were loaded into each gel well. […]

[3] = Biodistribution in healthy male Wistar rats; type: in vivo
Source text: FIG. 5 show biodistribution of compound 3* in healthy male Wistar rats (^197(m)HgCl2: n=4, 3*: n=8; ˜300 kBq per animal; all other organs measured well below 1% ID/g).

[4] = Volatility test; type: physicochemical; conditions: 70% EtOH(aq), 50° C., dry nitrogen stream 1 h
Procedure: as §1

[5] = Stability in highly aqueous solvent system for biodistribution studies; type: physicochemical; conditions: diluted from 70% EtOH(aq) to ~10% EtOH(aq) with brine
Procedure: as §1

CCCC[C@]1(O)C2(c3ccccc3)CN3Cc4cccc[c]4[Hg][c]4ccccc4CN(C2)C[C@]1(c1ccccc1)C3 [3*, 9-butyl-8,10-diphenyl-6,10:8,12-dimethanodibenzo[c,f][1,9]diaza[5]mercuracyclotetradecan-9-ol]
degradation observed by radio-TLC ([1]; Na2S competitor (1 mg/ml, 10 μl), rt, after 2 d): ~4% | chemical stability against sulfur-containing competitors ([1]; excess of glutathione, tris(2-mercaptoethyl)ammonium oxalate and sodium sulfide): high chemical stability | 197(m)Hg release (demetallation) and binding to serum proteins [2]: there isn't any observable protein interaction; also recorded: neither 197(m)Hg release (demetallation) nor binding to serum proteins is detectable | biodistribution, all other organs (not shown in FIG. 5) ([3]; healthy male Wistar rats, ~300 kBq per animal): below 1 % ID/g | demetallation and retention in the kidneys ([3]; healthy rats, biodistribution and SPECT): no indication of demetallation and retention in the kidneys | organ / renal clearance ([3]; healthy rats, normal micturition during a 24 h period): good organ clearance; also recorded: good renal clearance | loss of activity by evaporation (volatility) [4]: no observable loss by evaporation | stability of the solution by radio-TLC [5]: good stability
